Publication PMC7746945 (Neuro-Oncology, 2020)

Conditions: daily for 42 days, with olaparib 150 mg 3 days/week
Source text: Up to 3 cycles were delivered in the absence of disease progression or unacceptable toxicity. Patients progression free after 3 cycles were eligible for further cycles if approved by sponsor. […] Neurosurgical resection was mandatory in the expansion cohort.
If 2 or more of 6 patients at one dose level experienced a dose limiting toxicity (DLT), this was considered “not tolerated” and designated the maximum administered dose (MAD).

In the case of Cn1nnc2c(C(N)=O)ncn2c1=O [TMZ, temozolomide], the “MTD / RP2D, TMZ dose” value is reported as 75 mg/m^2.
